Values joined by “and” are separate entries in the source; they are usually repeats but may differ in a detail not shown here. Equal entries are not always repeated.
Key:
[1] = molecular target: Glutamate receptor ionotropic, kainate 1 (Rattus norvegicus, UniProt P22756)
[2] = molecular target: Glutamate receptor ionotropic, NMDA 1 (Rattus norvegicus, UniProt P35439)
Glutamate receptor 3 = Glutamate receptor 3 (Rattus norvegicus, UniProt P19492)
Glutamate receptor 3, sequence (P19492 whole entry): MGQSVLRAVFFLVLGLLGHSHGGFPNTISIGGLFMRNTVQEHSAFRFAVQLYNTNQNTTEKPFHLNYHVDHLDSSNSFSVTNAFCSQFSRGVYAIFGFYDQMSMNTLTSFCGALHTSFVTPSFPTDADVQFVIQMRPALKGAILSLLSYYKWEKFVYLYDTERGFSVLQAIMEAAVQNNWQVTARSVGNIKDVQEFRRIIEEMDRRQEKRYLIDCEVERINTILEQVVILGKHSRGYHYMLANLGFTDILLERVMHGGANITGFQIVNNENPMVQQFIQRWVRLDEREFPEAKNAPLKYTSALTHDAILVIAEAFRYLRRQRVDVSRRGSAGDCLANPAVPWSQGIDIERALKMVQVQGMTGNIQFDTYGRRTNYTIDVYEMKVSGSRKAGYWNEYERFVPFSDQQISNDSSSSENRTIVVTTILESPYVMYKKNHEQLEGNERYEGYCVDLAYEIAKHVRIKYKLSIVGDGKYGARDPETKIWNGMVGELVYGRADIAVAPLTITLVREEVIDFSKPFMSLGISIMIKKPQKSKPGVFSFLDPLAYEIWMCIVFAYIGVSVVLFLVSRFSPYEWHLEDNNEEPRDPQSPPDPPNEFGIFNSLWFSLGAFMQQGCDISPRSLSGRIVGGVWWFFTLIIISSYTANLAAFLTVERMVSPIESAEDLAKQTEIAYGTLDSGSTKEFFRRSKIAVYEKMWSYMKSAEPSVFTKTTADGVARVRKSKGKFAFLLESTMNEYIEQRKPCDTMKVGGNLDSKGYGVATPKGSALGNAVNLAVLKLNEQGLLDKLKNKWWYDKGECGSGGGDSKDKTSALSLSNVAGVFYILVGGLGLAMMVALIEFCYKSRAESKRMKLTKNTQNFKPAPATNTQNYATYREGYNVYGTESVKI

Glutamate receptor ionotropic, kainate 1, sequence (P22756 whole entry): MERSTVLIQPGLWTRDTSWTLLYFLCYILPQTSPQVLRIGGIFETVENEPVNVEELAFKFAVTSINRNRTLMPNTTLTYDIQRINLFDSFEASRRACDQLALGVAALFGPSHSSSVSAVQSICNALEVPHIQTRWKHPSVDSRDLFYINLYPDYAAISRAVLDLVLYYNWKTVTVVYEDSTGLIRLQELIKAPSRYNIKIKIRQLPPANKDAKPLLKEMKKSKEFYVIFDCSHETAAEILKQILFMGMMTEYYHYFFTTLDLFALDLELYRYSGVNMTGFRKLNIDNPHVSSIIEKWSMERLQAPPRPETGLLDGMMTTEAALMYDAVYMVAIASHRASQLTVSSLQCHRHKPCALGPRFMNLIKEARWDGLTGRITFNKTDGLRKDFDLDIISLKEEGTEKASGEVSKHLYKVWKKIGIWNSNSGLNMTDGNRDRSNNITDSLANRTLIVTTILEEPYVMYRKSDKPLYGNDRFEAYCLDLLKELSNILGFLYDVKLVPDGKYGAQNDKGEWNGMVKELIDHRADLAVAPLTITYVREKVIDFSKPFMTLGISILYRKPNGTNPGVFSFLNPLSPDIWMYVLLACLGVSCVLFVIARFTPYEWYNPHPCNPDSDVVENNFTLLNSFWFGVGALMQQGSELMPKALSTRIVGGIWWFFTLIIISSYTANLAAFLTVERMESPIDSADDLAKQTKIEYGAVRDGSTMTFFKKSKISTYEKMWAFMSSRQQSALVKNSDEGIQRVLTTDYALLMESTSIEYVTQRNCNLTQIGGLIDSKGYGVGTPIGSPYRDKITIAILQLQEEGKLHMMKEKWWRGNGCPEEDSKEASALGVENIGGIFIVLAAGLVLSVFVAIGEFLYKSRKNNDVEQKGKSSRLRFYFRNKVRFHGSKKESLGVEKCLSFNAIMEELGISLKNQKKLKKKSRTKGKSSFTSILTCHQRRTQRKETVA

N#Cc1cc2nc(O)c(O)nc2cc1[N+](=O)[O-] [7-Cyano-3-hydroxy-6-nitro-quinoxalin-2-ol anion]
Ki [1]: 1.8 µM
Ki [2]: > 10 µM and 5.6 µM

O=C1N=c2cc(N(O)O)c(-n3ccnc3)cc2=NC1=O [CAS_3035216]
Ki (Glutamate receptor 3): 0.084 µM
Ki [1]: 2.2 µM
Ki [2]: > 10 µM

— BindingDB's records for PubMed 8558460 (Yamanouchi Pharmaceutical, 1996)
